From ChEMBL document CHEMBL1201862, “PubChem BioAssay data set” (2004) come the findings set out here.

Molecules are shown by their SMILES.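 Results reflect a 48-hour exposure of cells in 96-well plates to compound at five concentrations. GI50 = concentration required for 50% inhibition of growth.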 Activity calls are given as the source filed them. No stated cut-off is given here; in the data, active = GI50 up to about 1.1 µM and inactive = higher. Bounds are passed on as bounds.

Test systems include HCC 2998; NCI-H226; COLO 205; Malme-3M; NCI/ADR-RES; RXF 393; SF-295; OVCAR-3; U-251; CAKI-1; DU-145; OVCAR-4; HL-60; MDA-N; HOP-62; SN12C; SK-OV-3; MOLT-4; SNB-75.
Holding throughout (experiment): inhibition of tumour cell growth, NCI panel, 48 h

Take `Cc1cc(=O)oc2c(C)c3oc(CBr)c(Br)c3cc12`: the GI50 with HCC 2998 was 19.3 µM (inactive); with NCI-H226, 30 µM (inactive); in the assay on COLO 205, 28.2 µM (inactive); with Malme-3M it was > 10 µM (inactive); with NCI/ADR-RES, 33.7 µM (inactive); with RXF 393, 19.8 µM (inactive). In addition, the GI50 with SF-295 was 17.2 µM (inactive); with OVCAR-3 it was > 100 µM (inactive); in the assay on U-251, 31.1 µM (inactive); in the assay on CAKI-1, 17.2 µM (inactive); in the assay on DU-145 it was 42.9 µM (inactive); with OVCAR-4, 28.5 µM (inactive). Besides, the GI50 with HL-60 is 85.1 µM (inactive); in the assay on MDA-N, 30.4 µM (inactive); with HOP-62, 27 µM (inactive); in the assay with SN12C, 20.1 µM (inactive); with SK-OV-3 it was 43.3 µM (inactive); in the assay with MOLT-4 it was 8.59 µM (inactive). Besides, in the assay with SNB-75, the GI50 was 22.5 µM (inactive).

In the case of `Cc1cc(C)nc(NS(=O)(=O)c2ccc(NNc3c4ccccc4nc4c(C(=O)Nc5ccc(S(=O)(=O)N=C(N)N)cc5)cccc34)cc2)n1`, the GI50 is 39.3 µM (inactive) in the assay with HCC 2998; 49.7 µM (inactive) in the assay with NCI-H226; 36.1 µM (inactive) in the assay on COLO 205; 76 µM (inactive) with Malme-3M; > 100 µM (inactive) in the assay with NCI/ADR-RES; > 100 µM (inactive) in the assay on RXF 393. Also, the GI50 in the assay with SF-295 was 77.3 µM (inactive); with OVCAR-3 it was 31.8 µM (inactive); with U-251, 25.4 µM (inactive); in the assay with CAKI-1 it was > 100 µM (inactive); in the assay with DU-145, 65.8 µM (inactive); with OVCAR-4, 65.2 µM (inactive). For the same molecule, the GI50 was 37.5 µM (inactive) in the assay on HL-60; 49.5 µM (inactive) in the assay with MDA-N; > 100 µM (inactive) in the assay with HOP-62; 64.1 µM (inactive) in the assay with SN12C; 24.8 µM (inactive) with SK-OV-3; 34.9 µM (inactive) with MOLT-4. Besides, in the assay on SNB-75, the GI50 was 28.4 µM (inactive).

On to `CCNC(=S)NNC(=O)CSc1nc2ccc(I)cc2c(=O)n1Cc1ccccc1`, for which the GI50 with HCC 2998 was 17.6 µM (inactive); in the assay on NCI-H226, 10.5 µM (inactive); in the assay on COLO 205, 25.7 µM (inactive); with Malme-3M, 23.9 µM (inactive); in the assay on NCI/ADR-RES, 22 µM (inactive); with RXF 393 it was 11.8 µM (inactive). Further, the GI50 with SF-295 is 25.4 µM (inactive); in the assay on OVCAR-3, 18.2 µM (inactive); with U-251, 43.4 µM (inactive); with CAKI-1, 0.374 µM (active); in the assay with DU-145, > 79.4 µM (inactive); in the assay with OVCAR-4 it was 10.8 µM (inactive). For the same molecule, the GI50 in the assay on HL-60 is 1.81 µM (inactive); in the assay with MDA-N it was 13.5 µM (inactive); in the assay on HOP-62, 35.8 µM (inactive); in the assay with SN12C it was 10.2 µM (inactive); in the assay with SK-OV-3, 35 µM (inactive); with MOLT-4, 7.48 µM (inactive). In addition, the GI50 with SNB-75 is > 85.7 µM (inactive).

On to `COc1cccc(C(=O)N[C@@H]2[C@H](O)[C@@H](CO)O[C@H]2n2cnc3c(N)ncnc32)c1`, for which the GI50 in the assay on HCC 2998, with NCI-H226, with COLO 205, in the assay with Malme-3M, in the assay on NCI/ADR-RES and in the assay on RXF 393 was > 100 µM (inactive) each time. Further, the GI50 with SF-295, in the assay on OVCAR-3, with U-251, in the assay with CAKI-1, in the assay with DU-145 and with OVCAR-4 was > 100 µM (inactive) in each case. In addition, the GI50 in the assay on HL-60, in the assay on MDA-N, with HOP-62, in the assay with SN12C, in the assay with SK-OV-3 and in the assay with MOLT-4 was > 100 µM (inactive) each time. In addition, the GI50 in the assay with SNB-75 is > 100 µM (inactive).

On to `COc1ccc2nc3ccc(OC)cc3c([S+]([O-])CCCl)c2c1` (stereo not given), for which the GI50 in the assay with HCC 2998 was 23.2 µM (inactive); in the assay with NCI-H226 it was 16.8 µM (inactive); in the assay with COLO 205 it was 1.77 µM (inactive); in the assay with Malme-3M, 1.69 µM (inactive); in the assay with NCI/ADR-RES it was 15.2 µM (inactive); with RXF 393, 3.59 µM (inactive). Moreover, the GI50 in the assay on SF-295 is 22.2 µM (inactive); with OVCAR-3, 2.2 µM (inactive); with U-251, 14.5 µM (inactive); with CAKI-1, 2.62 µM (inactive); with DU-145, 1.99 µM (inactive); with OVCAR-4, 5.05 µM (inactive). The GI50 in the assay on HL-60 was 2.31 µM (inactive); in the assay with MDA-N, 2.44 µM (inactive); in the assay on HOP-62, 18.1 µM (inactive); in the assay on SN12C, 1.94 µM (inactive); in the assay on SK-OV-3, 20.7 µM (inactive); in the assay with MOLT-4, 2.82 µM (inactive). Besides, in the assay on SNB-75, the GI50 is 17.8 µM (inactive).

Regarding `CCOC(=O)c1nc[nH]c1/N=N/N(C)N`, the GI50 in the assay on HCC 2998 is > 100 µM (inactive); with NCI-H226 it was > 100 µM (inactive); in the assay with COLO 205, 36.6 µM (inactive); with Malme-3M, > 100 µM (inactive); in the assay on NCI/ADR-RES, > 100 µM (inactive); with RXF 393 it was > 100 µM (inactive). In addition, the GI50 in the assay on SF-295 was 91.2 µM (inactive); in the assay with OVCAR-3, > 100 µM (inactive); with U-251, 65 µM (inactive); with CAKI-1, 15.4 µM (inactive); in the assay on DU-145, > 100 µM (inactive); in the assay with OVCAR-4, > 100 µM (inactive). For the same molecule, the GI50 is 29.2 µM (inactive) in the assay with HL-60; > 100 µM (inactive) with MDA-N; > 100 µM (inactive) in the assay with HOP-62; > 100 µM (inactive) in the assay with SN12C; > 100 µM (inactive) with SK-OV-3; 44.2 µM (inactive) with MOLT-4. Also, the GI50 in the assay with SNB-75 is > 100 µM (inactive).

Turning to `CSC1=C(C)C(/C=N/Nc2ccc([N+](=O)[O-])cc2)=C(C)N(c2ccccc2)S1(=O)=O`, the GI50 was 25.8 µM (inactive) in the assay with HCC 2998; > 100 µM (inactive) with NCI-H226; 48.2 µM (inactive) in the assay on COLO 205; 94.2 µM (inactive) in the assay on Malme-3M; 6.49 µM (inactive) in the assay on NCI/ADR-RES; > 100 µM (inactive) in the assay on RXF 393. Also, the GI50 is 6.17 µM (inactive) in the assay with SF-295; 25.4 µM (inactive) in the assay with OVCAR-3; > 100 µM (inactive) in the assay with U-251; > 100 µM (inactive) with CAKI-1; > 100 µM (inactive) in the assay with DU-145; > 100 µM (inactive) with OVCAR-4. Further, the GI50 in the assay on HL-60 was 1.28 µM (inactive); in the assay on MDA-N, > 100 µM (inactive); with HOP-62, > 100 µM (inactive); with SN12C, > 100 µM (inactive); with SK-OV-3, > 100 µM (inactive); in the assay with MOLT-4 it was 5.27 µM (inactive). For the same molecule, the GI50 in the assay with SNB-75 was 38.5 µM (inactive).

As for `COc1nc2ccc(CNc3ccc(C(=O)O)cc3)cc2nc1OC`, the GI50 with HCC 2998, in the assay with NCI-H226, in the assay with COLO 205, in the assay on Malme-3M, with NCI/ADR-RES and with RXF 393 was > 10 µM (inactive) in each case. Further, the GI50 in the assay with SF-295, in the assay with OVCAR-3, with U-251, in the assay with CAKI-1, in the assay on DU-145 and in the assay on OVCAR-4 was > 10 µM (inactive) in each case. The GI50 in the assay with HL-60, with MDA-N, with HOP-62, with SN12C, in the assay with SK-OV-3 and in the assay on MOLT-4 was > 10 µM (inactive) each time. The GI50 with SNB-75 was > 10 µM (inactive).

Take `O=C1/C(=C/c2ccc(O)cc2)CC/C1=C\c1ccc(O)cc1`: the GI50 was > 100 µM (inactive) with HCC 2998; > 100 µM (inactive) in the assay with NCI-H226; > 100 µM (inactive) with COLO 205; > 72.6 µM (inactive) with Malme-3M; 28.3 µM (inactive) with NCI/ADR-RES; > 100 µM (inactive) with RXF 393. The GI50 in the assay with SF-295 was > 96.4 µM (inactive); in the assay with OVCAR-3, > 100 µM (inactive); in the assay on U-251 it was 53.1 µM (inactive); in the assay with CAKI-1 it was 34.5 µM (inactive); in the assay with DU-145, > 100 µM (inactive); in the assay on OVCAR-4, > 64.3 µM (inactive). Moreover, the GI50 in the assay with HL-60 was 0.458 µM (active); in the assay on MDA-N, > 100 µM (inactive); in the assay with HOP-62, > 61.8 µM (inactive); in the assay with SN12C, > 64.6 µM (inactive); in the assay on SK-OV-3, > 100 µM (inactive); in the assay on MOLT-4, 7.14 µM (inactive). For the same molecule, the GI50 with SNB-75 is > 100 µM (inactive).

Take `OC(C1CCCCCCCCCC1)C(O)C1CCCCCCCCCC1` (stereo not given): the GI50 in the assay on HCC 2998 is > 100 µM (inactive); in the assay on NCI-H226, > 100 µM (inactive); with COLO 205, > 100 µM (inactive); in the assay on Malme-3M it was > 100 µM (inactive); in the assay with NCI/ADR-RES, > 100 µM (inactive); in the assay on RXF 393, 93.1 µM (inactive). For the same molecule, the GI50 in the assay on SF-295, in the assay on OVCAR-3, in the assay on U-251, in the assay on CAKI-1, with DU-145 and in the assay on OVCAR-4 was > 100 µM (inactive) in each case. For the same molecule, the GI50 with HL-60 is > 100 µM (inactive); in the assay with MDA-N, > 100 µM (inactive); in the assay with HOP-62, > 100 µM (inactive); with SN12C it was > 100 µM (inactive); in the assay on SK-OV-3 it was > 100 µM (inactive); with MOLT-4, 37.1 µM (inactive). Further, the GI50 in the assay on SNB-75 was > 100 µM (inactive).
